Assay results taken from ChEMBL document CHEMBL1127271, “Synthesis of 1,2,4-triazine-(2H,4H)-3,5,-dione anticoccidial agents via palladium-catalyzed cross-coupling reactions” (Bioorg Med Chem Lett, 1994).
Activity calls are given as the source filed them. The calls are words filed in the database; no cut-off is given here.

These compounds were tested on Eimeria tenella (assay: In vivo anti-coccidial activity determined at a dose of <16 p.p.m. (battery efficacy against Eimeria tenella); IA means Inactive).
Assay type: functional, organism-based
With “[1-(2,5-Dimethoxy-phenyl)-vinyl]-trimethyl-stannane” the Activity was “inactive”. In the case of “Trimethyl-(4-methyl-cyclohex-1-enyl)-stannane”, the Activity is reported as “inactive”. In the case of “(1-Cyclopentyl-vinyl)-trimethyl-stannane”, the Activity is reported as “inactive”. For O=c1cnn(-c2ccc(I)c(C(F)(F)F)c2)c(=O)[nH]1, the Activity was “inactive”. For CC1CC=C(c2c(Cl)cc(-n3ncc(=O)[nH]c3=O)cc2Cl)CC1 (centres undefined), the Activity was “inactive”. (1-Cyclohexyl-vinyl)-trimethyl-stannane was tested, and the Activity was “inactive”. In the case of C=C(c1c(Cl)cc(-n2ncc(=O)[nH]c2=O)cc1Cl)C1CCCCC1, the Activity is reported as “inactive”. In the case of C=C(c1c(Cl)cc(-n2ncc(=O)[nH]c2=O)cc1Cl)C1CCCC1, the Activity is reported as “inactive”. In the case of O=C(O)c1nn(-c2ccc(I)c(C(F)(F)F)c2)c(=O)[nH]c1=O, the Activity is reported as “inactive”.
